In patent publication US12263155B2, “Combinations of monoamine oxidase inhibitors and serotonin receptor agonists and their therapeutic use” (Remedi, Inc., priority 2022, dated 2025):

Legend:
[1] = target: T1, MAO-A from human brain striatum (Homo sapiens, UniProt P21397); assay: Inhibitory kinetics of human brain striatum MAO-A; format: biochemical; settings: for Vmax: [14C]-5-HT substrate
T1 construct: homogenates of a post-mortem sample of the human brain striatum, served as the source of MAO-A enzymatic activity; from tissue; host or cells: human brain striatum, post-mortem (P2 mitochondrial-enriched fraction)
T1 sequence (P21397 1-527): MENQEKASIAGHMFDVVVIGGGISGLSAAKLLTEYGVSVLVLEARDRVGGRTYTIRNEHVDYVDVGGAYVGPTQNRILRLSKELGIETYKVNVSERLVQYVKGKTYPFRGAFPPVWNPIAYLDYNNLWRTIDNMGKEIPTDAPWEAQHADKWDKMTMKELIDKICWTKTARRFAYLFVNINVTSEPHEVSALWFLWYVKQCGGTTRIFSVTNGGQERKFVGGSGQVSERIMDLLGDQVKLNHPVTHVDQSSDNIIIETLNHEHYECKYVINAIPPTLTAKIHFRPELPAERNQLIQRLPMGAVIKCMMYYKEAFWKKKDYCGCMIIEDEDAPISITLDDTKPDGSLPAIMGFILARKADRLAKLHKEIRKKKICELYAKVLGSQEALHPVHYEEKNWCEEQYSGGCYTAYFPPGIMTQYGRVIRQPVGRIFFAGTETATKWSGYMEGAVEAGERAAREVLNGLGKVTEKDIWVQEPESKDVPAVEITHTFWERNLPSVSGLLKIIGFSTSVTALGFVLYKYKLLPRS
Experimental: Methods: The soluble extract of the mitochondrial enriched fraction (P2 pellet), which was prepared from homogenates of a post-mortem sample of the human brain striatum, served as the source of MAO-A enzymatic activity for this assay. After preparation, the P2 fraction was stored frozen until it was thawed for use on the day of assay. […] The MAO-A assay specificity was enhanced by inclusion of 0.1 μM deprenyl to prevent substrate oxidation by MAO-B. The CX157 competition for MAO-A activity was measured using either 1.0 nM or 5.0 nM CX157 against the 2 log unit concentration range of [^14C]-5-HT. The reference standard, RO 41-1049, was tested at 10 μM. Deprenyl (0.1 μM) was included in all MAO-A assays to prevent any potential for MAO-B mediated oxidation of the [^14C]-5-HT substrate. […] The MAO-A assays were performed using CX157 at concentrations of 0 nM (as a positive control), 1 nM and 5 nM. The Km and Vmax values were calculated from Lineweaver-Burke plots.

[2] = Phase I modified release tablets BID safety; format: in vivo, human; settings: 125 mg and 175 mg BID, 7 days each
Experimental: Methods: A total of 20 Subjects (16 on CX157 and 4 on placebo) were dosed with CX157 Modified Release Tablets, 125 mg BID (total daily dose of 250 mg) or placebo in Period 1 for 7 days. Of the 20 subjects, 19 continued in Period 2 of the study where they received CX157 Modified Release Tablets, 175 mg BID (total daily dose of 350 mg) or placebo in the fed state for 7 days. Subjects who were randomized to CX157 125 mg BID in Period 1 received CX157 175 mg BID in Period 2, after a washout of 7 days. Subjects randomized to placebo in Period 1 received placebo in Period 2, after a washout of 7 days. Blood samples for PK analysis were collected during both periods of the study.

[3] = Plasma and brain CX157 concentrations after oral dosing in rats; settings: rat; for Kp at 2 h / Kp at 4 h / Kp at 8 h / Kp at 18 h / Kp at 24 h / concentration at 0 h / concentration at 2 h / concentration at 4 h / concentration at 8 h / concentration at 18 h / concentration at 24 h: male, Sprague-Dawley, po
[4] = brain and plasma, 5 mg/kg, mean brain/plasma ratio of CX157 concentrations, 5 mg/kg oral
[5] = brain and plasma, 10 mg/kg, mean brain/plasma ratio of CX157 concentrations, 10 mg/kg oral
[6] = brain/plasma, 1 mg/kg, mean brain/plasma ratio of CX157 concentrations, 1 mg/kg oral

SMILES: O=S1(=O)c2ccc(F)cc2Oc2cc(OCC(F)(F)F)ccc21 [CX157, 3-fluoro-7(2,2,2-trifluorethoxy)phenoxathiine-10,10-dioxide]
- increase of Km of the enzyme for [14C]-5-HT ([1]; 5.0 nM CX157): 34.6%
- Vmax ([1]; 1 nM CX157): 50777
- Vmax ([1]; 5 nM CX157): 59161
- mode of MAO-A inhibition ([1]; human brain striatum): competitive inhibitor
- Ki ([1]; human brain striatum homogenate, from plot of Km values): 10 nM
- tolerability [2]: well tolerated
- Kp at 2 h [3, 4]: 2.5
- Kp at 4 h ([3]; brain and plasma, 5 mg/kg, mean brain/plasma ratio of CX157 concentrations, 5 mg/kg oral, 4 h): 2.2
- Kp at 8 h [3, 4]: 5
- Kp at 18 h [3, 4]: 3.7
- Kp at 24 h [3, 4]: 7.4
- Kp at 2 h [3, 5]: 3.1
- Kp at 4 h ([3]; brain and plasma, 10 mg/kg, mean brain/plasma ratio of CX157 concentrations, 10 mg/kg oral, 4 h): 1.9
- Kp at 8 h [3, 5]: 2.2
- Kp at 18 h [3, 5]: 7.2
- Kp at 24 h [3, 5]: 8.5
- concentration at 0 h ([3]; brain, 1 mg/kg): 0 ng/mL
- concentration at 2 h ([3]; brain, 1 mg/kg): 103 ng/mL
- concentration at 4 h ([3]; brain, 1 mg/kg): 71.7 ng/mL
- concentration at 8 h ([3]; brain, 1 mg/kg): 76.5 ng/mL
- concentration at 18 h ([3]; brain, 1 mg/kg): 17.3 ng/mL
- concentration at 24 h ([3]; brain, 1 mg/kg): 13.2 ng/mL
- concentration at 0 h ([3]; brain, 5 mg/kg): 0 ng/mL
- concentration at 2 h ([3]; brain, 5 mg/kg): 447 ng/mL
- concentration at 4 h ([3]; brain, 5 mg/kg): 386 ng/mL
- concentration at 8 h ([3]; brain, 5 mg/kg): 535 ng/mL
- concentration at 18 h ([3]; brain, 5 mg/kg): 140 ng/mL
- concentration at 24 h ([3]; brain, 5 mg/kg): 85.8 ng/mL
- concentration at 0 h ([3]; brain, 10 mg/kg): 0 ng/mL
- concentration at 2 h ([3]; brain, 10 mg/kg): 387 ng/mL
- concentration at 4 h ([3]; brain, 10 mg/kg): 513 ng/mL
- concentration at 8 h ([3]; brain, 10 mg/kg): 540 ng/mL
- concentration at 18 h ([3]; brain, 10 mg/kg): 56.6 ng/mL
- concentration at 24 h ([3]; brain, 10 mg/kg): 86.6 ng/mL
- Kp at 4 h ([3]; brain/plasma, 1 mg/kg, brain concentration higher than plasma concentration, e.g. 4 hours after a 1 mg/kg oral dose): ≤ 10
- Kp at 2 h [3, 6]: 7.4
- Kp at 4 h ([3]; brain/plasma, 1 mg/kg, mean brain/plasma ratio of CX157 concentrations, 1 mg/kg oral, 4 h): 10.3
- Kp at 8 h [3, 6]: 6.5
- Kp at 18 h [3, 6]: 5.7
- Kp at 24 h [3, 6]: 4.8
- concentration at 0 h ([3]; plasma, 1 mg/kg): 0 ng/mL
- concentration at 2 h ([3]; plasma, 1 mg/kg): 20 ng/mL
- concentration at 4 h ([3]; plasma, 1 mg/kg): 9.9 ng/mL
- concentration at 8 h ([3]; plasma, 1 mg/kg): 13.4 ng/mL
- concentration at 18 h ([3]; plasma, 1 mg/kg): 4.5 ng/mL
- concentration at 24 h ([3]; plasma, 1 mg/kg): 3.2 ng/mL
- concentration at 0 h ([3]; plasma, 5 mg/kg): 0 ng/mL
- concentration at 2 h ([3]; plasma, 5 mg/kg): 184 ng/mL
- concentration at 4 h ([3]; plasma, 5 mg/kg): 214 ng/mL
- concentration at 8 h ([3]; plasma, 5 mg/kg): 189 ng/mL
- concentration at 18 h ([3]; plasma, 5 mg/kg): 26.8 ng/mL
- concentration at 24 h ([3]; plasma, 5 mg/kg): 14.3 ng/mL
- concentration at 0 h ([3]; plasma, 10 mg/kg): 0 ng/mL
- concentration at 2 h ([3]; plasma, 10 mg/kg): 158 ng/mL
- concentration at 4 h ([3]; plasma, 10 mg/kg): 412 ng/mL
- concentration at 8 h ([3]; plasma, 10 mg/kg): 257 ng/mL
- concentration at 18 h ([3]; plasma, 10 mg/kg): 8.5 ng/mL
- concentration at 24 h ([3]; plasma, 10 mg/kg): 5.4 ng/mL
- blood-brain-barrier penetration ([3]; oral): penetrated the blood-brain-barrier
- time of maximum plasma levels ([3]; oral 1, 5, 10 mg/kg): two to four hours
- pharmacokinetic half-life in brain versus plasma ([3]; oral, particularly 10 mg/kg): longer pharmacokinetic half-life in the brain than in plasma
